Data set [1] is described as follows: Partition of polar organic molecules between hexane and acetonitrile. The format is physicochemical. The conditions noted are these: hexane/acetonitrile equal volumes; GC; polar molecule wt%: propionaldehyde 7.5, butyraldehyde 5.2, valeraldehyde 5.5, 3-pentenenitrile 4.7. On the procedure: Solutions were prepared containing equal volumes of hexane and acetonitrile. To each solution was added a polar organic molecule identified in Table L below. The mixture was vigorously shaken, then allowed to settle and phase separate. The two phases were then analyzed for content of polar molecule by GC. In Table L, the percent by weight of polar molecule added to the hexane/acetonitrile solvent mixture together with Kpartition is given for various polar molecules.

The conditions of data set [2]: for Kpartition: hexane:acetonitrile (1:1) solvent system, summary table; for partition coefficient Kp: hexane/acetonitrile solvent system, examples, Tables A and B.
Data set [3] in a line: Extraction of Texanol from rhodium/Ligand E catalyst: Kpartition and selectivity. Type of data set: physicochemical. On the procedure:
. To this mixture was added an equal volume of acetonitrile. The mixture was shaken for 30 minutes, then allowed to settle and phase separate for several hours. The two layers were then separated, and analyzed for content. The partition coefficient Kp of the catalyst is summarized in Table J below, together with the volume ratio of the two phases defined as Vratio=volume of the catalyst containing phase after extraction/volume of the extracting solution phase after extraction, and the selectivity of the extraction defined as Selectivity=Kpartition of catalyst/Kpartition organic material being separated from catalyst.
. […] The mixture was shaken for 30 minutes, then allowed to settle and phase separate over several hours. The two phases were then separated and analyzed for content. In Table K below, partition coefficient Kp of the catalyst and Texanol as well as the volume ratio of the two phases defined as Vratio=volume of the catalyst containing phase after extraction/volume of the extracting solution phase after extraction is summarized.

Where [4] appears, read: DMSO, Examples 18 (B 0.8 wt%, 223 ppm Rh), 19 (C 0.8 wt%, 222 ppm Rh), 21 (E 0.6 wt%, 136 ppm Rh).
[5] abbreviates: polar solvent W: acetonitrile with 1 wt% water, Examples 24 (B 0.8 wt%, 223 ppm Rh), 25 (E 0.6 wt%, 120 ppm Rh).

Like-named read-outs stand apart in the source and are kept apart here. Bounds are passed on as bounds.

`CC=CCC#N` [3-pentenenitrile] displayed a Kpartition in data set [1] of 50.
With `c1ccc(-c2ccccc2Op2oc3ccccc3c3ccccc3o2)c(Op2oc3ccccc3c3ccccc3o2)c1` [Ligand A, reference compound], the partitioning behavior entry in data set [2] (hexane/acetonitrile, Comparative Example A, control) is reported as “non-selective for the hydrocarbon phase”. For the same compound, the Kpartition in data set [2] was 0.04.
As for `CC(C)(C)c1cc(-c2cc(C(C)(C)C)cc(C(C)(C)C)c2Op2oc3ccc(C(C)(C)C)cc3c3cc(C(C)(C)C)ccc3o2)c(Op2oc3ccc(C(C)(C)C)cc3c3cc(C(C)(C)C)ccc3o2)c(C(C)(C)C)c1` [Ligand B], the Kpartition under setting [4] worked out at 124; the Kpartition (acetonitrile, Ligand 0.8 wt%, rhodium 223 ppm, Example 17) came out at 19; the Kpartition (hexane/acetonitrile, Ligand 1.5 wt%, rhodium 318 ppm, Example 15) was determined as 34; the Kpartition under setting [5] is given as 27; the Kpartition in data set [2] came out at 26.
As for `CC(C)(C)CC(C)(C)c1cc(-c2cc(C(C)(C)CC(C)(C)C)cc(C(C)(C)CC(C)(C)C)c2Op2oc3ccccc3c3ccccc3o2)c(Op2oc3ccccc3c3ccccc3o2)c(C(C)(C)CC(C)(C)C)c1` [Ligand C], the Kpartition under setting [4] came out at 42; the Kpartition (Glutaronitrile, Ligand 0.8 wt%, rhodium 222 ppm, Example 20) is 43; the Kpartition (hexane/acetonitrile, Ligand 0.8 wt%, rhodium 222 ppm, Example 16) is reported as 28; the Kpartition in data set [2] was 38. For the same compound, the “Kpartition Ligand C” value is 68 in data set [2] (hexane/DMSO, Example 12) and 20 in data set [2] (hexane/glutaronitrile, Example 13).
In data set [2], `CCCCCC(C)(C)c1cc(-c2cc(C(C)(C)CCCCC)cc(C(C)(C)CCCCC)c2Op2oc3ccccc3c3ccccc3o2)c(Op2oc3ccccc3c3ccccc3o2)c(C(C)(C)CCCCC)c1` [Ligand D] yielded a Kpartition of 116.
For `CC(C)(C)CC(C)(C)c1cc(-c2cc(C(C)(C)CC(C)(C)C)cc(C(C)(C)CC(C)(C)C)c2Op2oc3ccc(C(C)(C)C)cc3c3cc(C(C)(C)C)ccc3o2)c(Op2oc3ccc(C(C)(C)C)cc3c3cc(C(C)(C)C)ccc3o2)c(C(C)(C)CC(C)(C)C)c1` [Ligand E], the Kpartition under setting [4] is given as 79; the Kpartition (DMSO, Ligand 0.6 wt%, rhodium 120 ppm, Example 23) is reported as 128; the Kpartition (acetonitrile, Ligand 0.6 wt%, rhodium 120 ppm, Example 22) was 250; the Kpartition under setting [5] is recorded as 352; the Kpartition in data set [2] is given as 502.
For the compound `CC(C)(C)c1ccc(OP(Oc2ccccc2-c2ccccc2OP(Oc2ccc(C(C)(C)C)cc2C(C)(C)C)Oc2ccc(C(C)(C)C)cc2C(C)(C)C)Oc2ccc(C(C)(C)C)cc2C(C)(C)C)c(C(C)(C)C)c1` [Ligand F], the Kpartition in data set [2] is on record as 100.
On the same count and under the same terms, to `CC1(c2cc(-c3cc(C4(C)CCCCC4)cc(C4(C)CCCCC4)c3Op3oc4ccccc4c4ccccc4o3)c(Op3oc4ccccc4c4ccccc4o3)c(C3(C)CCCCC3)c2)CCCCC1` [Ligand G] belongs 19.
On the same count and under the same terms, the value for `CCC(C)(C)c1cc(-c2cc(C(C)(C)CC)cc(C(C)(C)CC)c2Op2oc3ccccc3c3ccccc3o2)c(Op2oc3ccccc3c3ccccc3o2)c(C(C)(C)CC)c1` [Ligand H] was 6.
The same measure, in the same setting: the value for `CC(C)(C)c1cc(-c2cc(C(C)(C)C)cc(C(C)(C)C)c2Op2oc3ccccc3c3ccccc3o2)c(Op2oc3ccccc3c3ccccc3o2)c(C(C)(C)C)c1` [Ligand I] was 2.3.
Regarding `CCCCCCCCP(CCCCCCCC)CCCCCCCC` [Ligand J], in data set [2], the “partition coefficient Kp” value is reported as > 100 and the Kpartition is > 100.
Regarding `CCN(CC)P(Oc1c(-c2cc(OC)cc(C(C)(C)C)c2OP(N(CC)CC)N(CC)CC)cc(OC)cc1C(C)(C)C)N(CC)CC` [Ligand K], in data set [2], the “partition coefficient Kp” value was found to be 5 and the Kpartition stood at 5.
On to `CC(C)(C)c1ccc(Op2oc3c(C(C)(C)C)cc(C(C)(C)C)cc3c3cc(C(C)(C)C)cc(C(C)(C)C)c3o2)c(C(C)(C)C)c1` [Ligand M], for which, in data set [2], the Kpartition is 25.
For the compound `CC(C)C(=O)OCC(C)(C)C(O)C(C)C` (stereo not shown) [Texanol], the “Kpartition Texanol” value is recorded as 0.4 in data set [3] (hexane/acetonitrile, Vratio 5.6, Example 40) and 96 in data set [3] (toluene vs acetonitrile containing water 4/1, Example 41).
For `CCCC=O` [butyraldehyde], the Kpartition in data set [1] was found to be 3.2.
The same measure, in the same setting: the value for `CCC=O` [propionaldehyde] was 9.2.
Regarding `CCCCC=O` [valeraldehyde], in data set [1], the Kpartition is reported as 2.0.

For the origin of these results see patent US5952530A, “Separation processes” (Union Carbide Chemicals & Plastics Technology Corporation, priority 1998, dated 1999).
